Experiments:
Type in all cases: cell-based
[1] = tested on: Staphylococcus aureus ATCC 10832; test: Log reduction, multiple cycles, S. aureus ATCC 10832; details: 30 seconds per cycle
Experimental: (§1) Referring now to FIG. 17, the experiments described above for FIG. 14 were also performed with additional foams, one foam in which 1 gram of Calcium hypochlorite salt was infused (D100, shown as left column for each cycle), and one foam in which 2 grams of Calcium hypochlorite salt was dispersed (D200, shown as right column for each cycle). […] As discussed additionally below, the minimum concentration is significant because testing identified concentrations of hypochlorite-ion as low as 0.5-0.7 mM to have effective antibacterial and antimicrobial properties. Additional testing was performed to measure the zone of inhibition (ZOI) and Log Reduction of microbes for various samples of released aqueous solutions having various concentrations of hypochlorite ion, as listed in Tables 2 and 3. Table 2 lists ZOI and Log reduction data for a single cycle measured at hold times (exposure duration) of 30 seconds and 5 minutes of bacterial exposure to solution. Table 3 lists ZOI and Log reduction data for multiple cycles (each cycle including introduction of hypochlorite solution, and removal of solution prior to beginning next cycle). In the ZOI experimentation, foam discs having a diameter of 8 millimeters (mm) and a height of 5 mm were each saturated with hypochlorite-ion solution as indicated. Table 3 also lists the initial microbe count in log form (10^X, where X is listed in Table 2), log reduction in microbe count, and ZOI in mm. For the data of Table 3, the initial concentration (1×) of hypochlorite ion in solution was 5.7 mM of hypochlorite ion, which corresponds to 0.041% w/v of Ca(OCl)^2. In the Log reduction experimentation, the microbes were exposed to the respective concentration of solution for 30 seconds per cycle. […] The bold entries in Table 3 are indicative of substantially all microbes being killed. In the biofilm eradication cycles listed in Table 6 below, probes were cultured with microbes and incubated to permit formation of a biofilm on the probe. The probe was then exposed to solutions having various concentrations of Calcium hypochlorite solution for multiple cycles, with each cycle including exposure of the probe to solution for a duration of 5 minutes.

[2] = tested on: MRSA; test: Log reduction, single cycle, MRSA; details: for ΔLog - MRSA 30 sec.: 30 sec. exposure; for ΔLog - MRSA 5 min.: 5 min. exposure
Experimental: as §1

[3] = tested on: Staphylococcus aureus USA 400 (MRSA); test: Minimum Bactericidal Concentration (MBC), S. aureus USA 400 (MRSA); details: % w/v Ca(OCl)2 in water
Experimental: as §1, with “The probe was then exposed to solutions having various concentrations of Calcium hypochlorite solution for multiple cycles, with each cycle including exposure of the probe to solution for a duration of 5 minutes.” left out

[4] = tested on: Staphylococcus aureus USA 400 (MRSA); test: Log reduction, multiple cycles, S. aureus USA 400 (MRSA); details: 30 seconds per cycle
Experimental: as §1

[5] = Sample Dilution 1x (5.7 mM hypochlorite ion, 0.041% w/v Ca(OCl)2)
[6] = Sample Dilution 2x of 5.7 mM hypochlorite ion
[7] = Sample Dilution 4x of 5.7 mM hypochlorite ion
[8] = Sample Dilution 8x of 5.7 mM hypochlorite ion (lowest concentration, 0.7 mM)

For hypochlorite ion [OCl^− Solutions], the “Log Reduction Staphylococcus aureus ATCC 10832 1 Cycle” value [1, 5] was 3.21, the “Log Reduction Staphylococcus aureus ATCC 10832 3 Cycles” value [1, 5] was 2.82 and the “Log Reduction Staphylococcus aureus ATCC 10832 5 Cycles” value [1, 5] was 2.66. For the same substance, the “Log Reduction Staphylococcus aureus ATCC 10832 1 Cycle” value [1, 6] was 3.21, the “Log Reduction Staphylococcus aureus ATCC 10832 3 Cycles” value [1, 6] was 2.82 and the “Log Reduction Staphylococcus aureus ATCC 10832 5 Cycles” value [1, 6] was 2.66. For the same substance, the “Log Reduction Staphylococcus aureus ATCC 10832 1 Cycle” value [1, 7] was 3.21, the “Log Reduction Staphylococcus aureus ATCC 10832 3 Cycles” value [1, 7] was 2.82 and the “Log Reduction Staphylococcus aureus ATCC 10832 5 Cycles” value [1, 7] was 2.66. The “Log Reduction Staphylococcus aureus ATCC 10832 1 Cycle” value [1, 8] was 3.21, the “Log Reduction Staphylococcus aureus ATCC 10832 3 Cycles” value [1, 8] was 2.82 and the “Log Reduction Staphylococcus aureus ATCC 10832 5 Cycles” value [1, 8] was 2.66. The “ΔLog - MRSA 30 sec.” value ([2]; 0.8 mM HOCl/OCl−) was 2.96, the “ΔLog - MRSA 5 min.” value ([2]; 0.8 mM HOCl/OCl−) was 2.99 and the “ΔLog - MRSA 30 sec.” value ([2]; 1.9 mM HOCl/OCl−) was 2.93. The “ΔLog - MRSA 5 min.” value ([2]; 1.9 mM HOCl/OCl−) was 4.09, the “ΔLog - MRSA 30 sec.” value ([2]; 3.1 mM HOCl/OCl−) was 3.55 and the “ΔLog - MRSA 5 min.” value ([2]; 3.1 mM HOCl/OCl−) was over 7.13. The “ΔLog - MRSA 30 sec.” value ([2]; 4.0 mM HOCl/OCl−) was 5.52, the “ΔLog - MRSA 5 min.” value ([2]; 4.0 mM HOCl/OCl−) was over 7.13 and the “ΔLog - MRSA 30 sec.” value ([2]; 10.7 mM HOCl/OCl−) was over 6.93. The “ΔLog - MRSA 5 min.” value ([2]; 10.7 mM HOCl/OCl−) was over 7.13, the “ΔLog - MRSA 30 sec.” value ([2]; 15.7 mM HOCl/OCl−) was over 6.93 and the “ΔLog - MRSA 5 min.” value ([2]; 15.7 mM HOCl/OCl−) was over 7.13. For the same substance, the “Minimum Bactericidal Concentration (MBC) 1 Cycle” value ([3]; 1 Cycle) was under 0.005% w/v, the “Minimum Bactericidal Concentration (MBC) 3 Cycles” value ([3]; 3 Cycles) was under 0.005% w/v and the “Minimum Bactericidal Concentration (MBC) 5 Cycles” value ([3]; 5 Cycles) was under 0.005% w/v. The “Log Reduction Staphylococcus aureus USA 400 (MRSA) 1 Cycle” value [4, 5] was 4.15, the “Log Reduction Staphylococcus aureus USA 400 (MRSA) 3 Cycles” value [4, 5] was 3.63 and the “Log Reduction Staphylococcus aureus USA 400 (MRSA) 5 Cycles” value [4, 5] was 3.91. For the same substance, the “Log Reduction Staphylococcus aureus USA 400 (MRSA) 1 Cycle” value [4, 6] was 4.15, the “Log Reduction Staphylococcus aureus USA 400 (MRSA) 3 Cycles” value [4, 6] was 3.63 and the “Log Reduction Staphylococcus aureus USA 400 (MRSA) 5 Cycles” value [4, 6] was 3.91. For the same substance, the “Log Reduction Staphylococcus aureus USA 400 (MRSA) 1 Cycle” value [4, 7] was 4.15, the “Log Reduction Staphylococcus aureus USA 400 (MRSA) 3 Cycles” value [4, 7] was 3.63 and the “Log Reduction Staphylococcus aureus USA 400 (MRSA) 5 Cycles” value [4, 7] was 3.91. For the same substance, the “Log Reduction Staphylococcus aureus USA 400 (MRSA) 1 Cycle” value [4, 8] was 4.15, the “Log Reduction Staphylococcus aureus USA 400 (MRSA) 3 Cycles” value [4, 8] was 3.63 and the “Log Reduction Staphylococcus aureus USA 400 (MRSA) 5 Cycles” value [4, 8] was 3.91.

Source: patent US11167059B2, “Compositions with reactive ingredients, and wound dressings, apparatuses, and methods” (KCI Licensing, Inc., priority 2010, dated 2021)
